Laboratory results taken from PubChem BioAssay AID366 (MTDP, 2006).
“And” between values parts separate entries of the source, which are not always exact repeats. Identical values can stand only once. The source made the active and inactive calls. How the calls were made is not given here.

Molecular target: Ribonuclease H1 (Homo sapiens) (UniProt O60930)
Test: inhibition of human ribonuclease H1 activity – biochemical, FRET RNA/DNA duplex cleavage, dose response (AID 366);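 further: potency is for inhibitors that lower RNA cleavage and so lower fluorescence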
Settings: human RNase H1, FRET RNA/DNA duplex cleavage, fluorescence

Ribonuclease H1 (Homo sapiens), sequence (O60930 whole entry, looked up): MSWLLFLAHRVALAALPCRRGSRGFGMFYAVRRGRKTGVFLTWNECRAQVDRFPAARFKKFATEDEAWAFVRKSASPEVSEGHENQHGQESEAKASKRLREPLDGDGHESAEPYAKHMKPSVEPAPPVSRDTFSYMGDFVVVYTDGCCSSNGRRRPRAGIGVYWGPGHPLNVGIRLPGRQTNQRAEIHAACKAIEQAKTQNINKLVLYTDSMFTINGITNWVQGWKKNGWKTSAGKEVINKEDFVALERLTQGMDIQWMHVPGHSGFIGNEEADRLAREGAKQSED

| SMILES | IC50 |
| --- | --- |
| CCCc1cc(=O)oc2c3c(c4c(c12)OC(C)(C)C=C4)O[C@@H](C)[C@H](C)[C@@H]3F | 6800 nM |
| O=C1NN(c2ccc(I)cc2)C(=O)/C1=C\c1ccc(O)c(O)c1 | 8300 nM |
| Cc1sc(NC(=O)Cc2ccccc2)c(C(N)=O)c1C | inactive |
| C=C1C(=O)O[C@@H]2/C=C(\C)CC/C=C(\C(=O)O)CC/C=C(\C)CC[C@H]12 | 3100 nM |
| Cc1cc(I)c2c(c1)C1C=CCC1C(C(=O)O)N2 (centres undefined) | inactive |
| COc1ccc(-c2c(C#N)c(N)nc(SCC(=O)c3ccc(O)c(O)c3)c2C#N)cc1 | 1100 nM |
| Cc1cc(=O)c2c(O)c3c(O)cc(O)c4c5c(O)cc(O)c6c(O)c7c(=O)cc(C)c8c1c2c(c34)c(c65)c78 | 1100 nM |
| Cc1ccc(NC(=O)c2c(NC(=O)c3ccccc3F)sc3c2CCCCC3)cc1 | 320 nM |
| O=C1CC(=O)c2ccc3c4c(ccc1c24)C(=O)CC3=O | 400 nM |
| Cc1nn(CC(=O)Nc2sc(C)c(C)c2C(N)=O)c(C)c1[N+](=O)[O-] | 6000 nM |
| NC(=O)c1c(N)sc2c1CCCCC2 | inactive |
| O=C(Nc1ccc(N2CCN(C(=O)c3ccccc3)CC2)cc1)c1ccc(-c2ccccc2)cc1 | 350 nM |
| O=C1C=C/C(=N\S(=O)(=O)c2cc(Cl)ccc2Cl)C=C1Cl | 1600 nM |
| C=C/C(C)=C/C[C@]1(C)[C@H](C)CC[C@@]23C(=C[C@H](OC(=O)c4ccc(O)c(OC)c4)C[C@@H]12)[C@@H](OC(C)=O)O[C@H]3OC(C)=O | 4000 nM |
| CC(=O)O[C@H](C)[C@@H]1C2=C(C(=O)C[C@]1(C)O)C(=O)c1c(ccc(-c3ccc4c(c3O)C(=O)C3=C(C4=O)[C@@H]([C@@H](C)OC(C)=O)[C@@](C)(O)CC3=O)c1O)C2=O | 6000 nM |
| CC(C)=CCC/C(C)=C/Cc1cc(/C=C/c2cc(O)c(C/C=C(\C)CCC=C(C)C)c(O)c2)cc(O)c1O | 1300 nM |
| O=C1NC(=S)N(c2ccccc2F)C(=O)/C1=C/c1ccc(OCc2cccc(C(=O)O)c2)cc1 | 9000 nM |
| CC(C)=CCC(O)C1=CC(=O)c2c(O)ccc(O)c2C1=O (centres undefined) | 4200 nM |
| O=C1C=CC(=O)C(c2cc(Cl)ccc2Cl)=C1 | 3000 nM |
| O=C1C=CC(=O)C(c2cccc(Cl)c2)=C1 | 3900 nM |
| O=c1c(O)c(-c2ccc(O)c(O)c2)oc2cc(O)cc(O)c12 | 3000 nM |
| O=S(=O)(O)c1cc(N=[N+]([O-])c2cc(S(=O)(=O)O)c3ccccc3c2)cc2ccccc12 | 500 nM |
| C=CCn1c(N)c(-c2nc3ccccc3[nH]2)sc1=S | inactive |
| COc1ccc2oc(=O)c(-c3csc(Nc4ccc(Br)cc4)n3)cc2c1 | 900 nM |
| CC(C)=CCC1=C(O)[C@@](O)(CC=C(C)C)C(=O)C(C(=O)CC(C)C)=C1O | 2000 nM |

| SMILES | IC50 |
| --- | --- |
| O=C(O)C1CCCCC1c1c2ccc(=O)c(O)c-2oc2c(O)c(O)ccc12 (centres undefined) | 100 nM |
| C[C@H]1[C@H](O)c2c(c3c(c4c(-c5ccccc5)cc(=O)oc24)OC(C)(C)C=C3)O[C@@H]1C | 9000 nM |
| O=C1C=CC(=O)c2c(O)cccc21 | 500 nM |
| O=C1c2ccc(O)cc2C(=O)c2c1ccc(O)c2O | 7000 nM |
| CCOc1ccc(N2C(=O)/C(=C/c3ccc(Br)o3)C(=O)NC2=S)cc1 | 700 nM |
| C=CC1=C(C)C2=NC1=CC1=NC(=CC3=C(C)C4=C(O)C(C(=O)OC)C(=C5NC(=C2)C(C)C5CCC(=O)OC/C=C(\C)CCCC(C)CCCC(C)CCCC(C)C)C4=N3)C(CC)=C1C (centres undefined) | > 100000 nM (inactive) |
| Cc1sc2nc(-c3ccc([N+](=O)[O-])cc3)[nH]c(=O)c2c1C | 900 nM |
| COc1cc(-c2[o+]c3cc(O)cc(O)c3cc2O)cc(O)c1O | 2400 nM and 4000 nM |
| CC(C)OC(=O)c1cc(O)c(O)c(O)c1 | > 100000 nM (inactive) |
| C[C@@H]1Oc2c3c(c4c(-c5ccccc5)cc(=O)oc4c2C(=O)[C@H]1C)OC(C)(C)C=C3 | 3100 nM |
| Ic1ccc2c(c1)N(c1ccccc1)c1cc(N=c3ccc4nc5ccc(I)cc5n(-c5ccccc5)c-4c3)ccc1N2 | 300 nM |
| CC1=c2c(oc3cc(O)c(Nc4c(C)cc(O)cc4O)c(C)c23)=CC(=O)C1=Nc1c(C)cc(O)cc1O | 300 nM |
| O=C1c2ccccc2C(=O)c2c(O)c(O)cc(O)c21 | 4200 nM |
| Cc1cc(O)c2c(c1O)C(=O)c1cccc(O)c1C2=O | inactive |
| Cc1ccc(C(=O)Nc2sc(C)c(C)c2C(N)=O)cc1 | 800 nM |
| NCC[Se][Se]CCN | 5300 nM |
| O=C(Cc1ccccc1Cl)c1ccc(O)c(O)c1O | inactive |
| Oc1ccc(/C=N/Nc2nncc(-c3ccccc3)n2)c(O)c1O | 1100 nM |
| Oc1cc(O)c2cc(O)c(-c3ccc(O)c(O)c3)[o+]c2c1 | 100 nM |
| O=c1c(O)cccc2cc(O)c(O)c(O)c12 | 900 nM |
| CN(C)CN1CSC(=S)N(CN(C)C)C1 | inactive |
| Cc1ccc(S(=O)(=O)N=C2C=C(Cl)C(=O)C(Br)=C2)cc1 | 4700 nM |
| Cc1c(O)c(Br)c(C)c(O)c1Br (tested in a mixture with another compound) | inactive |
| O=C(NC(=S)Nc1cc(-c2nc3ccccc3s2)ccc1Cl)c1ccc(F)cc1 | 800 nM |
| Cc1sc(NC(=O)C2CC3CCC2C3)c(C(N)=O)c1C (centres undefined) | inactive |

| SMILES | IC50 |
| --- | --- |
| CN(C)S(=O)(=O)c1ccc(Nc2ccc(O)c3c2C(=O)c2c([N+](=O)[O-])ccc(O)c2C3=O)cc1 | 800 nM |
| Cc1ccc(C=C2C(=O)NC(=S)N(c3ccccc3Cl)C2=O)o1 | inactive |
| O=C(O)c1cc(-c2ccc(/C=C3/Sc4ccccc4C3=O)o2)ccc1O | 400 nM |
| O=[N+]([O-])c1cc(Cc2cc([N+](=O)[O-])c3cccnc3c2O)c(O)c2ncccc12 | 500 nM |
| CC1=C(C)CC(C(=O)Nc2ccc(N3C(=O)c4ccccc4C3=O)cc2)C(C(=O)O)C1 (centres undefined) | inactive |
| CCOc1ccc(NC(=O)c2c(NC(=O)c3ccco3)sc3c2CCCCC3)cc1 | 2100 nM |
| O=C1c2cc([N+](=O)[O-])ccc2-c2ccc3c4ccc5c6c(ccc(c7ccc1c2c73)c64)C(=O)c1cc([N+](=O)[O-])ccc1-5 | 400 nM |
| COC(=O)c1c(N)sc(C(=O)Nc2ccc(OC)cc2)c1C | inactive |
| Cc1sc(NC(=O)c2ccc(Br)o2)c(C(N)=O)c1C | 5000 nM |
| C=Cc1c(C)c2cc3[nH]c(cc4nc(cc5nc(cc1[nH]2)C(C)=C5CCC(=O)O)C(CCC(=O)O)=C4C)c(C)c3C=C | 200 nM |
| Oc1cc(CN2COc3ccccc32)c(O)cc1CNC1CCCCC1 | inactive |
| S=C(Nc1ccc2c(c1)Cc1ccccc1-2)Nc1ccc2c(c1)Cc1ccccc1-2 | 1300 nM |
| Cc1cccc(NC(=O)c2c(NC(=O)c3ccc([N+](=O)[O-])cc3)sc3c2CCCC3)c1 | 580 nM |
| Cc1ccc(S(=O)(=O)N=C2C=CC(=O)C=C2)c(C)c1 | 3100 nM |
| Oc1cc(O)c2c(c1)OC(c1ccc(O)c(O)c1)C(OC1(c3cc(O)c(O)c(O)c3)Oc3cc(O)cc(O)c3C(O)C1O)C2 (centres undefined) | 2400 nM |
| CC(C)=Cc1cc(CCC/C(C)=C/Cc2c(O)cc(C)c(C(=O)O)c2O)co1 | 1100 nM |
| C=CCN1C(=O)/C(=C\c2ccc([N+](=O)[O-])o2)C(=O)NC1=S | inactive |
| Cc1ccc(C(=O)NC(=S)Nc2ccc(-c3nc4ccccc4s3)cc2)cc1[N+](=O)[O-] | 800 nM |
| O=C1C=C(NCCc2cc(Br)c(O)c(Br)c2)C(=O)c2ncccc21 | 6800 nM |
| Cc1ccc(C)n1-c1ccc(Br)cc1C(=O)O | 9000 nM |
| Cc1cc(O)c2c(c1O)C(=O)C13C(=C2O)C(=O)C2C(O)C1C1C(O)C3C(=O)C3=C(O)c4c(O)cc(C)c(O)c4C(=O)C321 (centres undefined) | 4000 nM |
| O=C1C=CC2=C3c4cc(O)c(O)cc4CC3(O)COC2=C1O (centres undefined) | 200 nM |
| CN(C)CS/C(N)=N/C(O)C(Cl)(Cl)Cl (centres undefined) | inactive |
| Nc1nc(Sc2ccc([N+](=O)[O-])c3nonc23)c2[nH]cnc2n1 | inactive |
| O=C1NC(=O)/C(=C/c2ccc(-c3ccc(O)c(C(=O)O)c3)o2)S1 | 200 nM |

| SMILES | IC50 |
| --- | --- |
| Cc1ccc(S(=O)(=O)/N=C2\C=CC(=O)C=C2Cl)cc1 | 3400 nM |
| O=[N+]([O-])c1ccc2c(N=Nc3ccc4ccccc4c3O)c(O)cc(S(=O)(=O)O)c2c1 | 300 nM |
| COC(=O)c1cc2cc3cc4cc(CC(=O)O)c(C(=O)/C=C(\O)c5ccccc5O)c(OC)c4c(OC)c3c(O)c2c(=O)o1 | 1200 nM |
| COC([CH2][Hg][n]1cnc2c1c(=O)n(C)c(=O)n2C)CN1C(=O)c2ccccc2S1(=O)=O (centres undefined) | 3300 nM |
| CN1CC(O)C2=CC(=O)C(=O)C=C21 (centres undefined) | 1600 nM |
| Cc1ccc(C)n1-c1ccc(O)c(C(=O)O)c1 | 900 nM |
| O=C(Oc1ccccc1)Oc1c(Cl)cc2oc(=O)sc2c1Cl | 3000 nM |
| CCCCCCCCCCCCCCCC(=O)OCC1OC(n2ccc(N)nc2=O)C(O)C1O (centres undefined) | 600 nM |
| CCOc1cccc(N2C(=O)/C(=C/c3cn(CC(=O)OC)c4ccccc34)C(=O)NC2=S)c1 | 920 nM |
| Cc1cc(C)c2c(=O)[nH]c(SCC(=O)c3ccc(O)c(O)c3)nc2n1 | 9000 nM |
| Cc1cccc(NCC(=O)N/N=C\c2c(Br)cc(Br)c(O)c2Br)c1 | inactive |
| O=C(N/N=C/c1ccccc1Cl)c1cc(O)c(O)c(O)c1 | inactive |
| O=c1c(O)c(-c2cc(O)c(O)c(O)c2)oc2cc(O)cc(O)c12 | 3000 nM |
| O=C1C(Cl)=C(Nc2ccc(S(=O)(=O)Nc3ccccn3)cc2)C(=O)c2ccccc21 | inactive |
| COc1ccc(/C=C\C(=O)c2c(-c3ccccc3)c3cc(C)ccc3[nH]c2=O)c(OC)c1 | 8400 nM |
| CC(=O)C1=C(O)[C@@]2(O)C(=O)c3c(c(C)c4ccc(C)c(O)c4c3O)C[C@H]2[C@@H](N)C1=O | 700 nM |
| O=C1NC(=S)N(c2ccc(Cl)cc2)C(=O)/C1=C\C=C\c1ccccc1[N+](=O)[O-] | 7000 nM |
| COc1ccc(-c2nc3sc(-c4ccc(OC)cc4)nc3s2)cc1 | inactive |
| Cc1ccc(-n2c(/C=C/c3ccc(O)c(O)c3)nc3ccccc3c2=O)cc1 | 7300 nM |
| FC(F)(F)c1nc2ccc(SSc3ccc4nc(C(F)(F)F)[nH]c4c3)cc2[nH]1 | 1700 nM |
| CCOC(=O)Oc1c(OC)cc(C(=O)O[C@@H]2C[C@@H]3CN4CCc5c([nH]c6cc(OC)ccc56)[C@H]4C[C@@H]3[C@H](C(=O)OC)[C@H]2OC)cc1OC | inactive |
| O=C(Nc1sc2c(c1C(=O)Nc1cccc3ccccc13)CCCCC2)c1ccccc1F | 4800 nM |
| Cc1cc(-c2ccc(C=C3C(=O)NC(=S)NC3=O)o2)c([N+](=O)[O-])cc1C | 4000 nM |
| CCOc1ccc(N2C(=O)/C(=C/c3ccc(I)o3)C(=O)NC2=S)cc1 | 2000 nM |
